≈ marks a conversion by molar mass, not a printed value.

For series [1], the system named is S. aureus 76 (Meth^R)(lac^+). The experiment in a line: Broth microdilution MIC (NCCLS). It is filed as cell-based. The following applies: Staphylococcus aureus. In outline: (§1)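 Endpoint: lowest concentration preventing visible or OD650-detected growth. Conditions: Mueller-Hinton broth, serial 2-fold compound dilutions, 5×10^5 CFU/mL, 35° C for 24 h. Inoculum counts were checked by plating on TSA.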
(Broth dilution looks for growth in wells or tubes with falling amounts of substance.)

In series [2] the test system is S. aureus Spain #356 (Meth^R). The experiment in a line: Broth microdilution MIC (NCCLS). Type of series: cell-based. Conditions: Staphylococcus aureus, 24 h. In outline:
as §1

Series [3] relates to S. aureus Col (Meth^R)(lac^−). In words: Broth microdilution MIC (NCCLS). It is filed as cell-based. Conditions: Staphylococcus aureus. In outline:
as §1

Series [4] relates to S. aureus Col8A (Meth^S)(lac^−). The experiment in a line: Broth microdilution MIC (NCCLS). Type of series: cell-based. Conditions: Staphylococcus aureus. In outline: as §1
Series [5] concerns S. aureus ATCC 33593 (Meth^R). The experiment in a line: Broth microdilution MIC (NCCLS). The following applies: Staphylococcus aureus, ATCC33593. It is filed as cell-based. In outline: as §1
A further series deals with E. faecalis VanB (Van^R). The experiment in a line: Broth microdilution MIC (NCCLS). Type of series: cell-based. The following applies: Enterococcus faecalis. In outline:
as §1

Another series has as its system E. faecium ATCC 35667. The experiment in a line: Broth microdilution MIC (NCCLS). Type of series: cell-based. Conditions: Enterococcus faecium, ATCC35667. In outline: as §1
Series [6] relates to S. haemolyticus 05 (Meth^R). The experiment in a line: Broth microdilution MIC (NCCLS). Type of series: cell-based. The following applies: Staphylococcus haemolyticus. In outline: as §1
Series [7] deals with S. aureus PC1 (Meth^S)(lac^+). In words: Broth microdilution MIC (NCCLS). It is filed as cell-based. Conditions: Staphylococcus aureus. In outline:
as §1

A further series concerns S. aureus ATCC 29213. The experiment in a line: Broth microdilution MIC (NCCLS). Type of series: cell-based. Conditions: Staphylococcus aureus, ATCC29213, 24 h. In outline:
as §1

The test system of series [8] is S. aureus ATCC 13709 (Meth^S). In words: Broth microdilution MIC (NCCLS). Type of series: cell-based. The following applies: Staphylococcus aureus, ATCC13709. In outline:
as §1

The next series concerns E. coli ATCC25992. In words: Broth microdilution MIC (NCCLS). It is filed as cell-based. Conditions: Escherichia coli. In outline: (§2)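 In this NCCLS microdilution, growth inhibition was scored after a 24 h, 35° C incubation in MHB. Inocula (5×10^5 CFU/mL final) came from early log-phase cultures, except enterococci, which were used directly from overnight cultures.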
For the next series, the system named is E. faecium VanA (Van^R). The experiment in a line: Broth microdilution MIC (NCCLS). Conditions: Enterococcus faecium. Type of series: cell-based. In outline:
as §1

The next series has as its system E. faecium A491 (Amp^R). In words: Broth microdilution MIC (NCCLS). It is filed as cell-based. The following applies: Enterococcus faecium. In outline:
as §1

The next series relates to P. aeruginosa ATCC 27853. The experiment in a line: Broth microdilution MIC (NCCLS). Type of series: cell-based. Conditions: Pseudomonas aeruginosa, ATCC27853. In outline:
as §2

For the next series, the system named is E. faecalis ATCC 29212. In words: Broth microdilution MIC (NCCLS). It is filed as cell-based. The following applies: Enterococcus faecalis, ATCC29212. In outline:
as §1

For the next series, the system named is human serum proteins. In words: Serum binding determination by ultrafiltration/HPLC. Type of series: in vitro ADME. Conditions: by HPLC. The protocol: The more accurate measurement of binding of selected cephalosporin compounds was performed using HPLC as described below.
1. Serum is placed in a shaking water bath preheated to 37±2° C. for 5 to 10 minutes to heat serum to 37° C. Serum pH is measured and recorded, while serum is 37° C. using pH paper. Measurements are taken twice, 3 minutes apart. If the pH is not 7.4±0.4 then the pH is adjusted by blowing 5% CO2/95% O2 over the serum. After blowing for several minutes, serum is heated to 37° C. and measurements are taken twice, 3 minutes apart using pH paper to determine the pH. Store at 4° C. The serum is stable for 7 days. Always check the pH before each use.
2. Before any centrifugation, the centrifuge temperature must be adjusted to 25±2° C. Preheat the centrifuge by spinning for 45 minutes at the same speed to be used in the assay (1900 g) with two tubes of water in the rotor and the temperature set to 25° C. When the centrifuge stops immediately check the temperature of the tubes of water with a calibrated thermometer. The temperature of the tubes of water must be 25±2° C. […] Continue spinning and measuring the temperature and adjusting the setting until the temperature is 25±2° C.
3. Prepare blank ultrafiltrate by pipetting blank pH 7.4 serum into an Amicon Centrifree Micropartition devices, centrifuge: fixed angle rotor, 1900 g, 25° C. for 20 minutes. Heat ultrafiltrate in a shaking water bath preheated to 37° C. Measure ultrafiltrate pH and adjust to the pH of the serum (7.4±0.2).
4. Pipette 190 ul of blank ultrafiltrate into a set of labeled 1.7 mL polypropylene microfuge tubes for 3 of each level. Pipette 10 μL of the appropriate standard stock 50, 200, 1000 μg/mL to make standards 2.5, 10, and 50 μg/mL respectively. Vortex each tube well. One set of the standard samples are mixed 1:1 with 0.2 M acetic acid and injected onto the HPLC (MSTD). These samples are the membrane standards and will be used to compare to the other standards. Pipette 190 ul of ultrafiltrate and spike with 10 ul of whatever solution (e.g. water) the standards are prepared in to make the zero standard.
5. Pipette 475 μL of blank heated pH 7.4 serum into a set of labeled 1.7 mL polypropylene microfuge tubes for 2 of each (Serum A and Serum B). Pipette 25 μL of the 1000 μg/mL standard stock into each tube, vortex each tube well to make serum standard 50 μg/mL. Remove 100 μL of serum and deproteinate with 200 μL 4% TCA while vortexing to make serum time 0 (serum 50, T0). Place serum tubes in a shaking water bath at 37° C. for 10 minutes. Pipet 100 μL of serum out and deproteinate with 200 μL 4% TCA, to make serum time 10 min (serum 50, T10). Pipet 200 ul serum standard 50 μg/mL into an ultrafiltration device, which is not treated with TCA, to determine free drug in samples (Rat Serum 50).
6. Transfer serum and standard samples to labeled Amicon Centrifree Micropartition filters, and centrifuge: 1900 g, 25° C. for 10 minutes. The extracted serum samples (T0 and T10) are spun down and supernatant is loaded into HPLC vials.
7. 100 μL of ultrafiltrate sample and 100 μL of 0.2 M acetic acid were mixed together to stabilize the compound in ultrafiltrate.
8. Transfer entire stabilized ultrafiltrate solution to a labeled autoinjector HPLC vial cap with Teflon septa, and inject on HPLC.
Peak height or area is used in a weighted linear regression.

Usually MIC stands for the least concentration at which growth counts as inhibited. A higher MIC goes with a need for much substance. For `NCCSCc1nc(Cl)sc1SC1=C(C(=O)O)N2C(=O)[C@@H](NC(=O)/C(=N\O)c3cccc(N)n3)[C@H]2SC1` [Cmpd 29, (7R)-7-[(Z)-2-(2-aminopyrid-6-yl)-2-(hydroxyimino)acetamido]-3-[2-chloro-4-(2-aminoethylthiomethyl)-1,3-thiazol-5-ylthio]-3-cephem-4-carboxylic acid], the minimum inhibitory concentration (MIC) amounted to 1 µg/mL (≈ 1.66 µM) in [1]; 2 µg/mL (≈ 3.32 µM) in series [2]; 1 µg/mL (≈ 1.66 µM) in [3]; 0.125 µg/mL (≈ 0.208 µM) in [4]; 1 µg/mL (≈ 1.66 µM) in series [5]; 0.5 µg/mL (≈ 0.83 µM) with E. faecalis VanB (Van^R). Moreover, the MIC against E. faecium ATCC 35667 was 2 µg/mL (≈ 3.32 µM); in series [6], 2 µg/mL (≈ 3.32 µM); in [7], 0.25 µg/mL (≈ 0.415 µM); against S. aureus ATCC 29213 it was 0.125 µg/mL (≈ 0.208 µM); in series [8] it was 0.125 µg/mL (≈ 0.208 µM); against E. coli ATCC25992, 16 µg/mL (≈ 26.6 µM). In addition, the MIC in the series with E. faecium VanA (Van^R) was 4 µg/mL (≈ 6.64 µM); in the series on E. faecium A491 (Amp^R) it was greater than 32 µg/mL; in the series on P. aeruginosa ATCC 27853, greater than 32 µg/mL; with E. faecalis ATCC 29212, 0.25 µg/mL (≈ 0.415 µM). Further, the “Serum Binding human (% of compound bound to serum)” value with human serum proteins was 97%.

The values above are taken from US6723716B1, “7-acylamino-3-heteroarylthio-3-cephem carboxylic acid antibiotics and prodrugs thereof” (Essential Therapeutics, Inc., priority 1999, dated 2004).
